Reference: patent US9814663B2, “Peptide, method and composition for inhibiting melanogenesis” (RENORIGIN INNOVATION INSTITUTE CO., LTD., priority 2016, dated 2017)

How the values were obtained:
Format in all cases: cell-based, murine
[1] = tested on: B16F10 cells; assay: Melanin content assay; details: 10 and 50 μg/ml peptide, 5 days, p<0.05 compared to control
Experimental: (§1) B16F10 murine melanoma cells were cultured in phenol red-free DMEM with 10% fetal bovine serum and penicillin/streptomycin (100 IU/50 […]) in a humidified atmosphere containing 5% CO2 in air at 37° C.
Melanin contents of cultured B16F10 cells were measured according to the method (Lee et al., J Invest Dermatol 124, 405-411, 2005) with a slight modification. Briefly, B16F10 cells were seeded in 6-well plate (2×10^4 cells/well) and incubated overnight to allow cells to adhere. After treating with various test samples in an incubator for 5 days, washed, trypsinized and counted before pelleting. Melanin per cell was quantified after boiling in 1 M NaOH for 1 hour and melanin content in each sample was read from a calibration curve against synthetic eumelanin at 400 nm and converted to means±SE melanin pg/cell from 3 independent experiments.

[2] = tested on: Tyrosinase; assay: DOPA staining; details: B16F10 cells, 10 and 50 μg/ml peptide, 4 days
Experimental: as §1
DOPA staining was also performed to measure tyrosinase enzyme activity. B16F10 cells were seeded in 6-well plate (2×10^4 cells/well) and incubated overnight to allow cells to adhere. After treating with various test samples in an incubator for 4 days, cells were washed with PBS, fixation with 2% paraformaldehyde and washing with PBS a further three times, the cells were incubated with 0.1% DOPA (dissolved in 0.1 M PBS) at 37° C. for 5 hour, and observed using light microscopy (Wang et al., Exp Ther Med 6, 967-972, 2013).

[3] = tested on: B16F10 melanoma cells; assay: Cell pigmentation of treated B16F10 cultures (FIG. 1); details: 50 μg/ml peptide, 5 days
Experimental: B16F10 melanoma cells were treated with 10-50 μg/ml peptide of SEQ ID NO: 1 (“Lf H-392-399”) for 5 days with a medium change at day 3. The cells and medium were recovered in test tubes. Kojic acid is used as […] in the cellular study due to known inhibitory effects on tyrosinase activity. IBMX is used as positive control in the cellular study due to known elevator of cellular cAMP level, […].
as §1

[4] = tested on: Tyrosinase; assay: Tyrosinase assay (cell lysate, L-DOPA); details: B16F10 cells, 10 and 50 μg/ml peptide, 5 days; p<0.05 compared to control
Experimental: as §1
Tyrosinase is the rate limiting enzyme in the melanogenic pathway. Its measurement provides a highly specific and sensitive indication of degree of induction of melanogenesis. Tyrosinase enzyme activity of cultured B16F10 cells were measured according to the method of (Bellei et al., J Biol Chem 285, 7288-7299, 2010) with a slight modification. Briefly, B16F10 cells were seeded in 6-well plate (2×10^4 cells/well) and incubated overnight to allow cells to adhere. After treating with various test samples in an incubator for 5 days, cells were washed with PBS and then harvested using trypsin. At the end point, the cells were solubilized with phosphate buffer (pH 6.8) containing 1% Triton X-100. The cells were then disrupted by freezing and thawing, and the lysates were clarified by centrifugation at 10,000×g for 10 min. After protein quantification and adjustment of protein concentrations with lysis buffer, 100 μl of each lysate (each containing the same amount of protein) were aliquoted into the wells of a 96-well plate, and 100 μl of 5 mM L-DOPA were then added to each well. The absorbance was measured spectrophotometrically at 475 nm following a 30-min incubation period at 37° C. […]

Sequence: SSASTTED (listed as Homo sapiens) [Lf H-392-399]
- melanin synthesis (melanin content in cells and melanin secretion in culture medium) [1]: significantly decreased melanin synthesis
- DOPA staining [2]: weaker DOPA staining
- cell pigmentation [3]: reduced cell pigmentation
- tyrosinase activity [4]: significantly decreased tyrosinase activity
